Data as given in patent publication US8871753B2, “Macrocyclic compounds and their use as kinase inhibitors” (Incyte Corporation, priority 2008, dated 2014).
pIC50: −log10 of the molar value. Structures can show the parent of a compound that is named as a salt. Where two headings read alike, the source gives them in different places.

What was measured:
Assay type in all cases: biochemical
[1] = biological target: T1, human JAK1 (a.a. 837-1142) (Homo sapiens, UniProt P23458); assay: In vitro JAK kinase assay (HTRF, phosphorylation of a biotinylated peptide), JAK1; conditions: read-out: JAK1 IC50
T1 construct: human JAK1 (a.a. 837-1142); His tag (N); made in house; host or cells: insect cells (baculovirus)
How it was run: (§1)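 Phosphorylation of a biotinylated peptide by the JAK kinase domain, detected by HTRF with Eu-Py20 and SA-APC. ATP was 90 μM for JAK1, 30 μM for JAK2 and 3 μM for JAK3. Reactions ran 1 h at room temperature and were stopped with EDTA, followed by 40 min antibody binding.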

[2] = biological target: T2, human JAK2 (a.a. 828-1132) (Homo sapiens, UniProt O60674); assay: In vitro JAK kinase assay (HTRF, phosphorylation of a biotinylated peptide), JAK2
T2 construct: JAK2 (a.a. 828-1132); His tag (N); made in house; host or cells: insect cells (baculovirus)
How it was run: as §1

[3] = biological target: T3, human JAK3 (a.a. 781-1124) (Homo sapiens, UniProt P52333); assay: In vitro JAK kinase assay (HTRF, phosphorylation of a biotinylated peptide), JAK3
T3 construct: JAK3 (a.a. 781-1124); His tag (N); made in house; host or cells: insect cells (baculovirus)
How it was run: as §1

[4] = biological target: TYK2 (Homo sapiens, UniProt P29597); assay: TYK2 kinase inhibition (Table A1)
[5] = biological target: T4, Recombinant Human Anaplastic Lymphoma Kinase (Homo sapiens, UniProt Q9UM73); assay: ALK HTRF kinase assay
T4 construct: purchased Invitrogen, Carlsbad, Calif
How it was run: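 Recombinant human ALK with biotinylated peptide substrate; phosphorylation detected by HTRF using Eu-labelled anti-phosphotyrosine antibody and streptavidin-allophycocyanin. IC50 from a sigmoidal fit with Hill slope.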

[6] = compound at a concentration of 500 nM or 1 mM (not specified), cells shown as percentage
[7] = method AA1 (90 μM ATP) or AA2 (1000 μM ATP), not stated per value
[8] = method AA1 (30 μM ATP) or AA2 (1000 μM ATP), not stated per value
[9] = method AA1 (3 μM ATP) or AA2 (1000 μM ATP), not stated per value
[10] = compound at 500 nM or 1 mM, 90 μM ATP

T1 sequence (P23458 849-1154): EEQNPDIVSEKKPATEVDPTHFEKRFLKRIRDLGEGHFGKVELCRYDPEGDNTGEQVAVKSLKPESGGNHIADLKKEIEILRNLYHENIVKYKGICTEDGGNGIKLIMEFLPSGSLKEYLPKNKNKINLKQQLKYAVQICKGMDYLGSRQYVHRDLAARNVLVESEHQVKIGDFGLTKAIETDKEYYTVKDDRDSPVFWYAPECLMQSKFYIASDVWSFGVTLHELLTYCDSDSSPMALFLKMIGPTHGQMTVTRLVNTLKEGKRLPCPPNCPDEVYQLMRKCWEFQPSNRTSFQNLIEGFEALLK
T2 sequence (O60674 828-1132): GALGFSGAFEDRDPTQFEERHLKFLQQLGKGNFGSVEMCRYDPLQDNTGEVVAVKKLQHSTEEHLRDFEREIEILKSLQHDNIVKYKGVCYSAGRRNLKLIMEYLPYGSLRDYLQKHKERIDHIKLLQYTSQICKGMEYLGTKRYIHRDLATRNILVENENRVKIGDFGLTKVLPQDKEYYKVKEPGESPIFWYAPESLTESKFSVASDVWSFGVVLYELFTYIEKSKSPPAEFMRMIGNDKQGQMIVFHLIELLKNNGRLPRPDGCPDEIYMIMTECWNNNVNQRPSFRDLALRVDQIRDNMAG
TYK2, sequence (P29597 whole entry): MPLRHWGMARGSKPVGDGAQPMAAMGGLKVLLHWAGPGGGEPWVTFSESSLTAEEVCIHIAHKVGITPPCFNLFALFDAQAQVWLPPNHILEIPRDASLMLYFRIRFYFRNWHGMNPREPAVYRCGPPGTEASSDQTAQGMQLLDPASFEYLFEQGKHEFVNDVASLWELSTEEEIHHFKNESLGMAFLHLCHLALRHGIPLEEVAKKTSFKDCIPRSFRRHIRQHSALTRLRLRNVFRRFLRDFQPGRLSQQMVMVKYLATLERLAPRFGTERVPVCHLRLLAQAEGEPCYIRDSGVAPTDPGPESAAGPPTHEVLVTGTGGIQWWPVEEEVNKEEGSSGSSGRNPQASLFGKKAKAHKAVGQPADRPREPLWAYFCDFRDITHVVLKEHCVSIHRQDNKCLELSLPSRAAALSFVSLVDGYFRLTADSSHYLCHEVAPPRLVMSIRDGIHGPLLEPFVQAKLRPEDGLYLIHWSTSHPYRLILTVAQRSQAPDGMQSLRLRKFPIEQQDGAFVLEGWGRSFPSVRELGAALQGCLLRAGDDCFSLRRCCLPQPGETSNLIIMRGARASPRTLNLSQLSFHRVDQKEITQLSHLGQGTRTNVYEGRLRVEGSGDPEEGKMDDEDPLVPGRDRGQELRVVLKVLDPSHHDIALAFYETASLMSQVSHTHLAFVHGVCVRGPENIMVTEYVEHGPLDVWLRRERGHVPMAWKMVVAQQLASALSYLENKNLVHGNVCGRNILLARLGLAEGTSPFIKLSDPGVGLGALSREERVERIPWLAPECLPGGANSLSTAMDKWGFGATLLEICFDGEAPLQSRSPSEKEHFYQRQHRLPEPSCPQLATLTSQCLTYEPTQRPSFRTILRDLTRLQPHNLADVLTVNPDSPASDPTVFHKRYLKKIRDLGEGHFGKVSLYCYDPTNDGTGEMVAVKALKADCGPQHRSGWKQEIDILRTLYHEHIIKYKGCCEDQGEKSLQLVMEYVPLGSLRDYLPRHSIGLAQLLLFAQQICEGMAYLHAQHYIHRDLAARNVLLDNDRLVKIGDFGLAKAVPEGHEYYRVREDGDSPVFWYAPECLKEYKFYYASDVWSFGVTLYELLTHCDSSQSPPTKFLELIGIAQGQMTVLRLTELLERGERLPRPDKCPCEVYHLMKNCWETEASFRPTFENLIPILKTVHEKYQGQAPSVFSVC
T3 sequence (P52333 781-1124): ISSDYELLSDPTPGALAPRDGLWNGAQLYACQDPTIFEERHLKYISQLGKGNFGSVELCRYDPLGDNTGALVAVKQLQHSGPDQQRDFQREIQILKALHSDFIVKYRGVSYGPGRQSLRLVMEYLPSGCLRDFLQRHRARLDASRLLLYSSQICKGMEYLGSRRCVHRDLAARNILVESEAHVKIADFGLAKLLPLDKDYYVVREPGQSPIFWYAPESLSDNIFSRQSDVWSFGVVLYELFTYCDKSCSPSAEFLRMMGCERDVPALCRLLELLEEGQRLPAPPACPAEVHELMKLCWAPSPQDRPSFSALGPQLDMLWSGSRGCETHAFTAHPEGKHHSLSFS
T4 sequence (Q9UM73 19-1620): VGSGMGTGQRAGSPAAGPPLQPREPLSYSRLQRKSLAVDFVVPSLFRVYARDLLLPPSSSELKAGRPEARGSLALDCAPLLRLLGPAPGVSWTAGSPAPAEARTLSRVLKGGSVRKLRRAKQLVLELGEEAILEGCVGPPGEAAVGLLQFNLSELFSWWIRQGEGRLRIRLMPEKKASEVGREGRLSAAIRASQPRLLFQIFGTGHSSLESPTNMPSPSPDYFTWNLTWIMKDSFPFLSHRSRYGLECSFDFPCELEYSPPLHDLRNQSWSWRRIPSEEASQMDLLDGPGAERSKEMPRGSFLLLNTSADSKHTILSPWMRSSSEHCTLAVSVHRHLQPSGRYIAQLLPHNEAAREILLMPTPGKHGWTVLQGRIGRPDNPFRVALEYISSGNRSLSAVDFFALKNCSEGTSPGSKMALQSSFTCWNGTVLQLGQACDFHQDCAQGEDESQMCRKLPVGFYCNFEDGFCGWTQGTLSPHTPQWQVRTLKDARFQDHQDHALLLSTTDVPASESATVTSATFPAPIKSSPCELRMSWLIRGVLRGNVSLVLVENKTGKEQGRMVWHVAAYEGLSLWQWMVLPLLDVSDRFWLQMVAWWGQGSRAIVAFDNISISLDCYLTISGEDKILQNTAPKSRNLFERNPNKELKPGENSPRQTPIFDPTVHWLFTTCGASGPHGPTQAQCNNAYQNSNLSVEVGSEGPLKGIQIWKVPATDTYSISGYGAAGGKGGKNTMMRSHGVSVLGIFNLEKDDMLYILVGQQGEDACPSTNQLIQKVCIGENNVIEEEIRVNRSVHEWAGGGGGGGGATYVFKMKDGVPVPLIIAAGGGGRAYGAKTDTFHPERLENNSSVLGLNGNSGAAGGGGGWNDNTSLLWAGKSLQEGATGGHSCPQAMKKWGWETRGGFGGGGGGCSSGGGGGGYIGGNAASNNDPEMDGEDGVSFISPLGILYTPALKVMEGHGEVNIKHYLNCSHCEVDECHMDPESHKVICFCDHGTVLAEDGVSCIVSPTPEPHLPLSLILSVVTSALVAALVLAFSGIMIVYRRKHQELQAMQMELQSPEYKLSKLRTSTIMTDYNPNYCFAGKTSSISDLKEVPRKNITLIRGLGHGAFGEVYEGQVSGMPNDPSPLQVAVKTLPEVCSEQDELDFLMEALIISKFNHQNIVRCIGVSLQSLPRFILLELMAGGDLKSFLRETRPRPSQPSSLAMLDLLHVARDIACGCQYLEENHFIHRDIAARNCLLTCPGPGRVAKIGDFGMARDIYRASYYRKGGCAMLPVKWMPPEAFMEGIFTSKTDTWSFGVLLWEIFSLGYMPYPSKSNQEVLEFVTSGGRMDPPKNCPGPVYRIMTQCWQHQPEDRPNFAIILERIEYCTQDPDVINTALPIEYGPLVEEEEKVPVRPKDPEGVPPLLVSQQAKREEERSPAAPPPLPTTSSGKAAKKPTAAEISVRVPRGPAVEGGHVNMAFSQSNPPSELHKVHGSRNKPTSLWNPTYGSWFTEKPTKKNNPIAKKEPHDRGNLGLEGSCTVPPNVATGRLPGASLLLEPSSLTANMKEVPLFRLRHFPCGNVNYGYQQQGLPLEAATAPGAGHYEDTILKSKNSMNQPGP

Compound	pIC50 ([1]; Table B1)	pIC50 ([2]; Table B1)	pIC50 ([3]; Table B1)	pIC50 ([4]; Table B1)	ALK % of inhibition at a concentration of 500 nM or 1 mM [5, 6] [%]	pIC50 [1, 7]	pIC50 [2, 8]	pIC50 [3, 9]	pIC50 [4]	ALK % of inhibition at a concentration of 500 nM or 1 mM [5, 10] [%]	also measured
COc1cccc(NC(=O)N2CCC(C(=O)Nc3ccc4cc3CCc3cccc(c3)Nc3ncc(Cl)c(n3)N4)CC2)c1 [Example A38, N(4)-[6-Chloro-2,4,8,22-tetraazatetracyclo[14.3.1.1(3,7).1(9,13)]docosa-1(20),3(22),4,6,9(21),10,12,16,18-nonaen-12-yl]-N(1)-(3-methoxyphenyl)piperidine-1,4-dicarboxamide trifluoroacetate]						8.18	7.80	7.34	7.32	55	
Cc1cc(C(=O)N2CCC(CC(=O)Nc3ccc4cc3CCc3cccc(c3)Nc3ncc(Cl)c(n3)N4)CC2)no1 [Example A86, N-[6-Chloro-2,4,8,22-tetraazatetracyclo[14.3.1.1(3,7).1(9,13)]docosa-1(20),3(22),4,6,9(21),10,12,16,18-nonaen-12-yl]-2-{1-[(5-methylisoxazol-3-yl)carbonyl]piperidin-4-yl}acetamide trifluoroacetate]						9.10	8.66	7.54	8.82	32	
CC(C)NC(=O)N1CCC(CC(=O)Nc2ccc3cc2CCc2cccc(c2)Nc2ncc(Cl)c(n2)N3)CC1 [Example A84, 4-(2-{[6-Chloro-2,4,8,22-tetraazatetracyclo[14.3.1.1(3,7).1(9,13)]docosa-1(20),3(22),4,6,9(21),10,12,16,18-nonaen-12-yl]amino}-2-oxoethyl)-N-isopropylpiperidine-1-carboxamide trifluoroacetate]						7.62	8.05	7.31	7.80	31	
N#Cc1ccc(NC(=O)N2CCN(C(=O)COc3ccc4cc3CCc3cccc(c3)Nc3ncc(Cl)c(n3)N4)CC2)cc1 [Example A9, 4-({[6-Chloro-2,4,8,22-tetraazatetracyclo[14.3.1.1(3,7).1(9,13)]docosa-1(20),3(22),4,6,9(21),10,12,16,18-nonaen-12-yl]oxy}acetyl)-N-(4-cyanophenyl)piperazine-1-carboxamide trifluoroacetate]						8.04	7.72	7.17	7.66	0	
Cc1ccc2cc1Nc1ncc(Cl)c(n1)Nc1cccc(c1)CC2 [Example A7, 6-Chloro-19-methyl-2,4,8,22-tetraazatetracyclo[14.3.1.1(3,7).1(9,13)]docosa-1(20),3(22),4,6,9(21),10,12,16,18-nonaene trifluoroacetate]						6.89	7.49	6.52	6.82		pIC50 ([5]; 90 μM ATP): 6.28
O=C(CC1CCN(C(=O)c2cccnc2)CC1)Nc1ccc2cc1CCc1cncc(c1)Nc1ncc(Cl)c(n1)N2 [Example A188, N-[6-Chloro-2,4,8,18,22-pentaazatetracyclo[14.3.1.1(3,7).1(9,13)]docosa-1(20),3(22),4,6,9(21),10,12,16,18-nonaen-12-yl]-2-[1-(pyridin-3-ylcarbonyl)piperidin-4-yl]acetamide tris(trifluoroacetate)]						7.47	< 6.70	< 6.70	< 6.70	26	
Cn1c(NC(=O)c2cc3cc(c2)OCCSc2cccc(c2)Nc2nc(ncc2Cl)N3)nc2ccccc21 [Example D55, 6-Chloro-N-(1-methyl-1H-benzimidazol-2-yl)-17-oxa-14-thia-2,4,8,24-tetraazatetracyclo[16.3.1.1(3,7).1(9,13)]tetracosa-1(22),3(24),4,6,9(23),10,12,18,20-nonaene-20-carboxamide bis(trifluoroacetate)]											pIC50 ([1]; Table D1): 7.25; pIC50 ([2]; Table D1): 7.40; pIC50 ([3]; Table D1): 6.89; pIC50 ([4]; Table D1): 7.06; pIC50 ([5]; Table D1, 90 μM ATP): < 5.00
N#Cc1ccc(N2CCC(CC(=O)Nc3ccc4cc3CCc3cncc(c3)Nc3ncc(Cl)c(n3)N4)CC2)nc1 [Example A179, N-[6-Chloro-2,4,8,18,22-pentaazatetracyclo[14.3.1.1(3,7).1(9,13)]docosa-1(20),3(22),4,6,9(21),10,12,16,18-nonaen-12-yl]-2-[1-(5-cyanopyridin-2-yl)piperidin-4-yl]acetamide tris(trifluoroacetate)]						7.74	7.08	< 6.70	< 6.70	43	
NCCC(=O)Nc1ccc2cc1CCc1cccc(c1)Nc1ncc(Cl)c(n1)N2 [Example A108, 3-Amino-N-[6-chloro-2,4,8,22-tetraazatetracyclo[14.3.1.1(3,7).1(9,13)]docosa-1(20),3(22),4,6,9(21),10,12,16,18-nonaen-12-yl]propanamide bis(trifluoroacetate)]						8.22	7.49	7.59	7.82	32	

Further lines, with some results ahead:

pIC50 ([1]; Table B1)	pIC50 ([2]; Table B1)	pIC50 ([3]; Table B1)	pIC50 ([4]; Table B1)	ALK % of inhibition at a concentration of 500 nM or 1 mM [5, 6] [%]	pIC50 [1, 7]	pIC50 [2, 8]	pIC50 [3, 9]	pIC50 [4]	ALK % of inhibition at a concentration of 500 nM or 1 mM [5, 10] [%]	Compound	also measured
8.09	7.77	6.56	7.30	15						O=C(Nc1ccc2cc1CCc1cccc(c1)Nc1ncc(Cl)c(n1)N2)NC1CCCNC1 (centres unmarked) [Example B238, N-[6-Chloro-2,4,8,22-tetraazatetracyclo[14.3.1.1(3,7).1(9,13)]docosa-1(20),3(22),4,6,9(21),10,12,16,18-nonaen-12-yl]-N′-piperidin-3-ylurea bis(trifluoroacetate)]	
7.62	6.43	< 6.40	7.15							CS(=O)(=O)N1CCN(C(=O)Nc2ccc3cc2CCc2cncc(c2)Nc2ncc(Cl)c(n2)N3)CC1 [Example B318, N-[6-Chloro-2,4,8,18,22-pentaazatetracyclo[14.3.1.1(3,7).1(9,13)]docosa-1(20),3(22),4,6,9(21),10,12,16,18-nonaen-12-yl]-4-(methylsulfonyl)piperazine-1-carboxamide bis(trifluoroacetate)]	ALK % of inhibition at a concentration of 500 nM or 1 mM ([5]; percentage inhibition of the example compound at a concentration of 500 nM or 1 mM (not specified which)): 61%
7.04	7.37	6.72	6.12	31						O=C(Nc1cc2cc(c1)Nc1nc(ncc1Cl)Nc1cccc(c1)CC2)NC1CCCC1 [Example B215, N-[6-Chloro-2,4,8,22-tetraazatetracyclo[14.3.1.1(3,7).1(9,13)]docosa-1(20),3(22),4,6,9(21),10,12,16,18-nonaen-11-yl]-N′-cyclopentylurea trifluoroacetate]	
7.89	6.39	< 5.00	6.14	10						Cn1cc(C(=O)N2CC[C@H](NC(=O)Nc3ccc4cc3CCc3cncc(c3)Nc3ncc(Cl)c(n3)N4)C2)cn1 [Example B269, N-[6-Chloro-2,4,8,18,22-pentaazatetracyclo[14.3.1.1(3,7).1(9,13)]docosa-1(20),3(22),4,6,9(21),10,12,16,18-nonaen-12-yl]-N′-{(3S)-1-[(1-methyl-1H-pyrazol-4-yl)carbonyl]pyrrolidin-3-yl}urea bis(trifluoroacetate)]	
8.33	7.52	7.10	7.52	17						O=C(Nc1ccc2cc1CCc1cccc(c1)Nc1ncc(Cl)c(n1)N2)c1ccc(C(F)(F)F)cc1 [Example B75, N-[6-Chloro-2,4,8,22-tetraazatetracyclo[14.3.1.1(3,7).1(9,13)]docosa-1(20), 3(22),4,6,9(21),10,12,16,18-nonaen-12-yl]-4-(trifluoromethyl)benzamide trifluoroacetate]	
8.41	8.05	7.46	7.80	40						CCc1ccccc1NC(=O)Nc1ccc2cc1CCc1cccc(c1)Nc1ncc(Cl)c(n1)N2 [Example B97, N-[6-Chloro-2,4,8,22-tetraazatetracyclo[14.3.1.1(3,7).1(9,13)]docosa-1(20), 3(22),4,6,9(21),10,12,16,18-nonaen-12-yl]-N′-(2-ethylphenyl)urea trifluoroacetate]	
8.04	8.46	7.17	7.82							Brc1cnc2nc1Nc1cccc(c1)CCc1cccc(c1)N2 [Example B3, 6-Bromo-2,4,8,22-tetraazatetracyclo[14.3.1.1(3,7).1(9,13)]docosa-1(20),3(22),4,6,9(21),10,12,16,18-nonaene trifluoroacetate]	pIC50 ([5]; Table B1, cells without percent sign): 6.01
